According to ChEMBL document CHEMBL3399940, “Synthesis and antimalarial evaluation of prodrugs of novel fosmidomycin analogues” (Bioorg Med Chem Lett, 2015):
pIC50: −log10 of the molar value.

Legend:
Plasmodium falciparum = test: Antimalarial activity against chloroquine and mefloquine-resistant Plasmodium falciparum Dd2 after 48 hrs by SYBR Green I assay; type: functional; settings: for pIC50: Plasmodium falciparum, Dd2, 48 h, read-out: IC50
[1] = Cytotoxicity against human HepG2A16 cells after 24 hrs by MTT assay; type: cell-based; settings: read-out: LD50

Compound | pIC50 (Plasmodium falciparum) | CC50 at 24 h [1] [µM] | IC50 (Plasmodium falciparum)
CC(=O)N(O)CCCP(=O)(OCOC(=O)C(C)(C)C)OCOC(=O)C(C)(C)C | 6.57 | – | –
CC(=O)N(O)CCCP(=O)(O)O | 6.05 | – | –
CC(C)(C)C(=O)OCOP(=O)(OCOC(=O)C(C)(C)C)C1CCCN(O)C(=O)C1 (centres undefined) | 5.65 | 20.1 | –
CC(C)(C)C(=O)OCOP(=O)(OCOC(=O)C(C)(C)C)C1CCN(O)C(=O)C1 (centres undefined) | 7.56 | 25.6 | –
O[C@@H](c1cc(C(F)(F)F)nc2c(C(F)(F)F)cccc12)[C@H]1CCCCN1 [(S,R)-MEFLOQUINE] | 7.04 | – | –
CCOP(=O)(OCC)C1CCN(OCc2ccccc2)C(=O)C1 (centres undefined) | – | 25.6 | Not Active
